Assay results taken from PMC6753678, “Fueling Open Innovation for Malaria Transmission-Blocking Drugs: Hundreds of Molecules Targeting Early Parasite Mosquito Stages” (Frontiers in Microbiology, 2019).
Like-named read-outs stand apart in the source and are kept apart here.

What was measured:
[1] = system: 3D7-strain P. falciparum asexual parasites; test: P. falciparum asexual growth inhibition assay (Pf GIA); format: cell-based, Plasmodium falciparum; conditions: dose response confirmation; read-out: Pf asexual growth inhibition assays IC50
Procedure, shortened: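 LDH readout: absorbance at 650 nm after 10 min at room temperature with lactate/APAD/NBT/diaphorase mix on thawed plates. Cultures (0.25% parasitemia, 2% hematocrit) were treated 72 h at 37°C in low-oxygen gas. Inhibition was normalised to 50 μM chloroquine and DMSO; n=3 biological replicates.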

[2] = system: HepG2 cells; test: HepG2 cytotoxicity assay; conditions: for Pb ODA (this manuscript) HepG2 cytoxicity: HepG2 cytotoxicity listed with the Pb ODA data set (this manuscript); for IC50: read-out: HepG2 cytotoxicity assay IC50, dose response confirmation; for Unified cytotox: HepG2 values of the three screens unified
Procedure, shortened: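 Cells are plated at 2,500 per well on compound-treated plates in MEM containing 10% fetal bovine serum and 1% NEAA, then incubated 48 h at 37°C.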

[3] = system: P. berghei ookinete development; conditions: for % inhibition, Replicate A / % inhibition, Replicate B: primary screen at 1 μM
[4] = read-out: Pb ODA (this manuscript) IC50, P. berghei ookinete development assay, this manuscript
[5] = read-out: Pb Ookinete development assay IC50, dose response confirmation
[6] = read-out: Pb ODA IC50, this manuscript

| SMILES | IC50 [1] [nM] | Pb ODA (this manuscript) HepG2 cytoxicity [2] [µM] | IC50 [2] [nM] | Is compound selective in assay? Pb ODA active? [3] | % inhibition, Replicate A [3] [%] | % inhibition, Replicate B [3] [%] | IC50 [3, 4] [nM] | IC50 [3, 5] [nM] | Unified cytotox [2] [µM] | Is compound selective in assay? Pb ODA active? ([3]; 1: YES, 0: NO) | IC50 [3, 6] [nM] | HepG2 cytoxicity (Pb ODA, this manuscript) [2] [µM] |
| --- | --- | --- | --- | --- | --- | --- | --- | --- | --- | --- | --- | --- |
| COc1nc2c(CCN3CCC(NCc4ccc5c(c4)NCCO5)CC3)c(Cl)cnc2cc1F.Cl [TCMDC-135768] | 584 | 14.45 | 14400 | 0 (key: 1: YES; 0: NO) | 14.93 | 54.54 | 3540 | 3540 | – | – | – | – |
| Cc1[nH]c(C)c([N+](=O)[O-])c(=O)c1-c1ccc(Oc2ccccc2)cc1 [TCMDC-135779] | 809 | 100.00 | 100000 | 1 (key: 1: YES; 0: NO) | 85.12 | 87.09 | – | 540 | – | – | – | – |
| Cc1[nH]c(C)c(-c2ccc(/C=C/c3ccccn3)cc2)c(=O)c1Cl [TCMDC-135787] | 1260 | – | 100000 | – | 50.60 | 51.03 | – | 1050 | 100.00 | 1 (1: YES) | – | – |
| COc1ccc(CCc2ccc(-c3c(C)[nH]c(C)c(Cl)c3=O)cc2)cc1OC [TCMDC-135789] | 119 | – | 100000 | – | 97.42 | 111.57 | – | 277 | 100.00 | 1 (1: YES) | 280 | – |
| Cc1[nH]c(C)c(-c2ccc(OCCCc3ccccn3)cc2)c(=O)c1Br.Cl [TCMDC-135795] | 6.55 | 0.17 | 170 | 0 (key: 1: YES; 0: NO) | 72.29 | 89.65 | 590 | 594 | – | – | – | – |
| Cc1[nH]c(C)c(-c2ccc(OCc3ccccc3C(F)(F)F)nc2)c(=O)c1Br [TCMDC-135796] | 36 | – | 3020 | – | 84.05 | 98.42 | – | 42 | 3.02 | 1 (1: YES) | 40 | 3.02 |
| COc1nc2c(CCN3CC[C@H](NCc4ccc5c(c4)NC(=O)CO5)[C@H](O)C3)c(Cl)cnc2cc1F.Cl [TCMDC-135805] | 1320 | 12.02 | 12000 | 1 (key: 1: YES; 0: NO) | 46.55 | 63.06 | – | 770 | – | – | – | – |
| Cc1[nH]c(C)c(-c2ccc(OCc3cc(C(F)(F)F)cc(C(F)(F)F)c3)nc2)c(=O)c1Cl [TCMDC-135814] | 185 | – | 1660 | – | 68.02 | 98.05 | – | 161 | 1.66 | 1 (1: YES) | 160 | 1.66 |
| Cc1[nH]c(C)c(-c2ccc(OCc3cc(C(F)(F)F)cc(C(F)(F)F)c3)nc2)c(=O)c1Br [TCMDC-135815] | 279 | – | 710 | – | 74.97 | 105.72 | – | 122 | 0.71 | 0 (0: NO) | 120 | 0.71 |
| CCCCCCCc1ccc(-c2c(C)[nH]c(C)c(Cl)c2=O)cn1 [TCMDC-135816] | 355 | – | 30900 | – | 56.53 | 81.98 | – | 581 | 30.90 | 1 (1: YES) | 580 | 30.90 |
| Cc1[nH]c(C)c(-c2ccc(-c3ccccc3C(F)(F)F)nc2)c(=O)c1Br [TCMDC-135881] | 191 | – | 100000 | – | 87.53 | 97.69 | – | 973 | 100.00 | 1 (1: YES) | 970 | – |
| Cc1[nH]c(C)c(-c2ccc(-c3cccc(C(F)(F)F)c3)nc2)c(=O)c1Br [TCMDC-135911] | 45 | – | 100000 | – | 105.47 | 112.19 | – | 400 | 100.00 | 1 (1: YES) | – | – |
